This note sets out measurements from ChEMBL document CHEMBL1777780, “Discovery of XEN907, a spirooxindole blocker of NaV1.7 for the treatment of pain” (Bioorg Med Chem Lett, 2011).

Molecules are shown by their SMILES.

Series [1] can be described thus: Permeability from basolateral to apical side in human Caco2 cells. In kind it is ADME, cell-based. As to conditions: Caco-2, read-out: permeability. (In general: Caco-2 cells form a polarised layer with tight junctions and transporters.)
Series [2] is described as follows: Permeability from apical to basolateral side in human Caco2 cells. As to conditions: Caco-2, read-out: permeability. In kind it is ADME, cell-based.
Series [3] in a line: Tmax in Lewis rat at 10 mg/kg, po. In kind it is ADME, organism-based. More on the design: dose 10 mg/kg, route oral. Conditions: in vivo.
A short description of series [4]: Clearance in Lewis rat at 3 mg/kg, iv. In kind it is ADME, organism-based. Further details: dose 3 mg/kg, route intravenous. Conditions: in vivo.
A short description of series [5]: Cmax in Lewis rat at 3 mg/kg, iv. As to conditions: in vivo. In kind it is ADME, organism-based. Further details: dose 3 mg/kg, route intravenous.
A short description of series [6]: AUClast in Lewis rat at 3 mg/kg, iv. In kind it is ADME, organism-based. More on the design: time 0 - last, dose 3 mg/kg, route intravenous. Conditions: plasma.
Series [7] can be described thus: Metabolic stability in dog hepatocytes assessed as compound remaining after 2 hrs. In kind it is ADME, cell-based, Canis lupus familiaris, Hepatocyte. As to conditions: read-out: Stability.
Series [8] can be described thus: Volume of distribution at steady state in Lewis rat at 3 mg/kg, iv. In kind it is ADME, organism-based. More on the design: dose 3 mg/kg, route intravenous. Conditions: in vivo, read-out: Vdss.
Series [9] can be described thus: Cmax in Lewis rat at 10 mg/kg, po. In kind it is ADME, organism-based. Further details: dose 10 mg/kg, route oral. As to conditions: in vivo.
Series [10] is described as follows: AUClast in Lewis rat at 10 mg/kg, po. In kind it is ADME, organism-based. Further details: time 0 - last, dose 10 mg/kg, route oral. Conditions: plasma.
A short description of series [11]: Half life in Lewis rat at 3 mg/kg, iv. In kind it is ADME, organism-based. More on the design: dose 3 mg/kg, route intravenous. Conditions: in vivo.
A short description of series [12]: Oral bioavailability in Lewis rat at 10 mg/kg. In kind it is ADME, organism-based. Conditions: in vivo.
Series [13] in a line: Metabolic stability in human hepatocytes assessed as compound remaining after 2 hrs. In kind it is ADME, cell-based, Hepatocyte. As to conditions: read-out: Stability.
Series [14] is described as follows: Metabolic stability in rat hepatocytes assessed as compound remaining after 2 hrs. Conditions: read-out: Stability. In kind it is ADME, cell-based, Hepatocyte.

For the compound `O=C1N(Cc2ccc(Cl)cc2)c2ccccc2C1(O)c1ccc2c(c1)OCO2` (configuration not stated), the Papp B→A in series [1] worked out at 10.9 ×10⁻⁶ cm/s. Besides, the Papp A→B in [2] was found to be 9 ×10⁻⁶ cm/s.

Consider `O=C1N(Cc2ccc(Cl)cc2)c2ccccc2C1(O)c1ccc2c(c1)OCCO2` (configuration not stated), for which the Papp B→A in series [1] stood at 3.5 ×10⁻⁶ cm/s. The Papp A→B in [2] was determined as 1.9 ×10⁻⁶ cm/s.

Turning to `O=C1N(Cc2ccc(Cl)cc2)c2ccccc2C1(O)c1ccccc1` (configuration not stated), the Papp B→A in [1] came to 12.5 ×10⁻⁶ cm/s. Besides, in series [2], the Papp A→B came to 13.1 ×10⁻⁶ cm/s.

As for `O=C1N(CCC2CC2)c2ccccc2C1(O)c1ccc2c(c1)OCO2` (configuration not stated), in series [1], the Papp B→A amounted to 19.8 ×10⁻⁶ cm/s. Moreover, the Papp A→B in series [2] turned out to be 19.9 ×10⁻⁶ cm/s.

On to `CCCCCN1C(=O)C(O)(c2ccc3c(c2)OCO3)c2ccccc21` (configuration not stated), for which the Papp B→A in [1] was determined as 25.4 ×10⁻⁶ cm/s. Besides, the Papp A→B in [2] worked out at 28.9 ×10⁻⁶ cm/s.

In the case of `CCC(C)CCN1C(=O)C(O)(c2ccc3c(c2)OCO3)c2ccccc21` (configuration not stated), in [1], the Papp B→A came to 11.5 ×10⁻⁶ cm/s. Further, the Papp A→B in [2] was determined as 10.5 ×10⁻⁶ cm/s.

`COc1ccc(CN2C(=O)C(O)(c3ccc4c(c3)OCO4)c3ccccc32)cc1` (configuration not stated): the Papp B→A in series [1] was 11.9 ×10⁻⁶ cm/s. Besides, in series [2], the Papp A→B is 6.5 ×10⁻⁶ cm/s.

`O=C1N(Cc2ccccc2)c2ccccc2C1(O)c1ccc2c(c1)OCO2` (configuration not stated): the Papp B→A in [1] was 13.6 ×10⁻⁶ cm/s. For the same compound, the Papp A→B in series [2] amounted to 9.3 ×10⁻⁶ cm/s.

Consider `O=C1N(Cc2ccc3c(c2)OCO3)c2ccccc2C1(O)c1ccc2c(c1)OCO2` (configuration not stated), for which the Papp B→A in [1] was determined as 12.1 ×10⁻⁶ cm/s. For the same compound, the Papp A→B in series [2] is 7.7 ×10⁻⁶ cm/s.

`O=C1N(CC2CCC2)c2ccccc2C1(O)c1ccc2c(c1)OCO2` (configuration not stated): the Papp B→A in [1] was 21.1 ×10⁻⁶ cm/s. Further, the Papp A→B in series [2] worked out at 21.7 ×10⁻⁶ cm/s.

Consider `O=C1N(Cc2ccc(C(F)(F)F)cc2)c2ccccc2C1(O)c1ccc2c(c1)OCO2` (configuration not stated), for which the Papp B→A in series [1] amounted to 7.9 ×10⁻⁶ cm/s. Besides, the Papp A→B in series [2] stood at 5.4 ×10⁻⁶ cm/s.

Take `CCCCCN1C(=O)C(C)(c2ccc3c(c2)OCO3)c2ccccc21` (configuration not stated): the Papp B→A in [1] stood at 3.6 ×10⁻⁶ cm/s. Moreover, the Papp A→B in series [2] stood at 2.4 ×10⁻⁶ cm/s.

Take `CCCCCN1C(=O)C(N)(c2ccc3c(c2)OCO3)c2ccccc21` (configuration not stated): the Papp B→A in series [1] amounted to 22.3 ×10⁻⁶ cm/s. Also, the Papp A→B in [2] was 22 ×10⁻⁶ cm/s.

Regarding `CCCCCN1C(=O)C2(COc3cc4c(cc32)OCO4)c2ccccc21` (configuration not stated), the Tmax (in general, the time from dosing to the highest level) in series [3] was 0.33 h. Moreover, the clearance (usually the rate of elimination divided by the concentration) in series [4] was 157 mL/min/kg. In addition, the Papp B→A in [1] is 7.2 ×10⁻⁶ cm/s. In addition, the figures for the Cmax in [5] and in [9] were 953 ng/mL and 35 ng/mL, respectively. Further, the AUC(0-t) – broadly, the area under the concentration-time curve up to a stated or last time point – in series [6] was 320 ng·h/mL; in series [10] it was 143 ng·h/mL. The figures for the remaining at 2 h in series [7], in series [13] and in series [14] were 46%, 34% and 21%, respectively. The Vd in series [8] came to 35 L/kg. Besides, the half-life (as a rule, how long it takes for the measured level to halve) in series [11] is 2.6 h. Besides, the bioavailability (commonly dose-corrected exposure relative to a reference, in per cent) in series [12] worked out at 13%. Also, the Papp A→B in series [2] worked out at 5.9 ×10⁻⁶ cm/s.

As to `CCCCCN1C(=O)C2(CCc3cc4c(cc32)OCO4)c2ccccc21` (configuration not stated), the Papp B→A in series [1] came to 1.6 ×10⁻⁶ cm/s. Moreover, the Papp A→B in series [2] turned out to be 1.1 ×10⁻⁶ cm/s.
